Where two headings read alike, the source gives them in different places.
Tests used:
[1] = biological target: T1, UGT1A9 (Homo sapiens, UniProt O60656); conditions: pH 7.4
T1 sequence (O60656 26-530): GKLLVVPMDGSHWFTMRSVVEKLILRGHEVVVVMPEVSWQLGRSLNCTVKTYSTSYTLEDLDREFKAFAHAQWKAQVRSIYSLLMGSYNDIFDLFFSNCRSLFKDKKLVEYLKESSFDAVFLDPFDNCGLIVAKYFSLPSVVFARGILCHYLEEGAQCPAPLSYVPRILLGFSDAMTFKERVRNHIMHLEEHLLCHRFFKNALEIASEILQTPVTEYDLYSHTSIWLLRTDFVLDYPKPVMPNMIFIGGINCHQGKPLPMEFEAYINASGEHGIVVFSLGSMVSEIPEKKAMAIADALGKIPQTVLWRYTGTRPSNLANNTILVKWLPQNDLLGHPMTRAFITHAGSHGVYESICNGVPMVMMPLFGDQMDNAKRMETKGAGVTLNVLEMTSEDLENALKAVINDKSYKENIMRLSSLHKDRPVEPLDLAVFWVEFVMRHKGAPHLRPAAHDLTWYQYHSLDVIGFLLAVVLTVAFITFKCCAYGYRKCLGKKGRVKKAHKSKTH

[2] = biological target: T2, UGT1A1 (Homo sapiens, UniProt P22309); conditions: pH 7.4
T2 sequence (P22309 26-533): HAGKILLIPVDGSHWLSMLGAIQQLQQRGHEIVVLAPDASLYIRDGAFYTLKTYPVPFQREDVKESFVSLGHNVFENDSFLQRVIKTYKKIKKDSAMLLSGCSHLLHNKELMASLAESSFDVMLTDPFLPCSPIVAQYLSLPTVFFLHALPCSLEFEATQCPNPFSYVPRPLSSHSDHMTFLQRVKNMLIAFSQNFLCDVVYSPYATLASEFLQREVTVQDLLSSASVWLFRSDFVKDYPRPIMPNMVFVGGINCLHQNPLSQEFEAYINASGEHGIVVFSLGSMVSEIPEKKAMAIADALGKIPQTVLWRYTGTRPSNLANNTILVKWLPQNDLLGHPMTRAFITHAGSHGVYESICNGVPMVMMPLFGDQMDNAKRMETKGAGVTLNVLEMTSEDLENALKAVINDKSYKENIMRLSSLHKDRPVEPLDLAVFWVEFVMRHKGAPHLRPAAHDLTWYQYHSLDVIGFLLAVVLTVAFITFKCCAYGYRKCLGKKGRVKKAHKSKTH

[3] = biological target: T3, UGT1A3 (Homo sapiens, UniProt P35503); conditions: pH 7.4
T3 sequence (P35503 29-534): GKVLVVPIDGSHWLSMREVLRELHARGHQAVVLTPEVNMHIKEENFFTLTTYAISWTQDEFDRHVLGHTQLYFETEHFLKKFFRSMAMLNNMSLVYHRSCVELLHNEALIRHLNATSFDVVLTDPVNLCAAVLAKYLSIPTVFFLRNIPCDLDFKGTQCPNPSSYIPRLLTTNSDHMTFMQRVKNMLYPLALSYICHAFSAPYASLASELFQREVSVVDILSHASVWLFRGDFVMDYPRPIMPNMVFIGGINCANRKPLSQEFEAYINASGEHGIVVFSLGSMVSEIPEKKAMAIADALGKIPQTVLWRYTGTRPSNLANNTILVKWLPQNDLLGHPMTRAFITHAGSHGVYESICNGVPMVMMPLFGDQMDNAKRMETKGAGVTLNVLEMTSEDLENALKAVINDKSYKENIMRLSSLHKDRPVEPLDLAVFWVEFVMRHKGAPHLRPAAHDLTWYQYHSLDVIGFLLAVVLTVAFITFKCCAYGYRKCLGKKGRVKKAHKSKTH

[4] = tested on: UGT 1A1, 1A3, 1A6, 1A7, 1A8, 1A9, 1A10 and 2B7; conditions: human, 10 μM, pH 7.4
[5] = biological target: T4, UGT1A10 (Homo sapiens, UniProt Q9HAW8); assay: Glucuronidation by recombinant human UGT1A10; conditions: UGT1A10, substrate 10 μM
T4 sequence (Q9HAW8 26-530): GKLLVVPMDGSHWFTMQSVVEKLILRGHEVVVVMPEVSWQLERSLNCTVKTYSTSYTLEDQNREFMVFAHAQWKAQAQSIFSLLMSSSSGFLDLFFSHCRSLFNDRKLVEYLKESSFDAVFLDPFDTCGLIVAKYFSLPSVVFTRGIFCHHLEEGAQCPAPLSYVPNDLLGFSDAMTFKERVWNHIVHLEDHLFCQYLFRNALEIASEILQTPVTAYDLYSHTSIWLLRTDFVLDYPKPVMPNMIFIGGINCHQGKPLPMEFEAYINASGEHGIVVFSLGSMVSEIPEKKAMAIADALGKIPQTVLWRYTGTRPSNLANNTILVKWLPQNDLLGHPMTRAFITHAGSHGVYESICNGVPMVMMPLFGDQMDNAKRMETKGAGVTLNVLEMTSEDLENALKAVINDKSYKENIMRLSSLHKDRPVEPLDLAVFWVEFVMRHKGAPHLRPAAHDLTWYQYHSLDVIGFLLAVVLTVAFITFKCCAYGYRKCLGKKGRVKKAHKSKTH

[6] = biological target: T1, UGT1A9; assay: Glucuronidation by recombinant human UGT1A9
[7] = biological target: T2, UGT1A1; assay: Glucuronidation by recombinant human UGT1A1
[8] = biological target: T5, UGT2B7 (Homo sapiens, UniProt P16662); assay: Glucuronidation by recombinant human UGT2B7; conditions: UGT2B7, substrate 10 μM
T5 sequence (P16662 24-529): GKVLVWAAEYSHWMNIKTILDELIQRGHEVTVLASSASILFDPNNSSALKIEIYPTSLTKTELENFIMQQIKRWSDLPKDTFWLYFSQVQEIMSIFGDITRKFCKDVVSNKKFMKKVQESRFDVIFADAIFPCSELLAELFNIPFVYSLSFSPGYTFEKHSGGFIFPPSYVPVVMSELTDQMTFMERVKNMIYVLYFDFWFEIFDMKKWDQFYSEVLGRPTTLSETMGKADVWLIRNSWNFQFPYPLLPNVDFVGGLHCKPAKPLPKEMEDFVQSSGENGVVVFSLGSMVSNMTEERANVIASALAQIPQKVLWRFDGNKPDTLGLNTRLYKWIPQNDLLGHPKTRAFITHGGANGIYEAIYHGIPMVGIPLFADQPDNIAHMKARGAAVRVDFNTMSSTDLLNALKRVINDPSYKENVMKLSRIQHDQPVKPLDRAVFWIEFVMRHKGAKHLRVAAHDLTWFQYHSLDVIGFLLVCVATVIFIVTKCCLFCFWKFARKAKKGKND

[9] = biological target: T3, UGT1A3; assay: Glucuronidation by recombinant human UGT1A3
[10] = biological target: T6, UGT1A6 (Homo sapiens, UniProt P19224); assay: Glucuronidation by recombinant human UGT1A6; conditions: UGT1A6, substrate 10 μM
T6 sequence (P19224 27-532): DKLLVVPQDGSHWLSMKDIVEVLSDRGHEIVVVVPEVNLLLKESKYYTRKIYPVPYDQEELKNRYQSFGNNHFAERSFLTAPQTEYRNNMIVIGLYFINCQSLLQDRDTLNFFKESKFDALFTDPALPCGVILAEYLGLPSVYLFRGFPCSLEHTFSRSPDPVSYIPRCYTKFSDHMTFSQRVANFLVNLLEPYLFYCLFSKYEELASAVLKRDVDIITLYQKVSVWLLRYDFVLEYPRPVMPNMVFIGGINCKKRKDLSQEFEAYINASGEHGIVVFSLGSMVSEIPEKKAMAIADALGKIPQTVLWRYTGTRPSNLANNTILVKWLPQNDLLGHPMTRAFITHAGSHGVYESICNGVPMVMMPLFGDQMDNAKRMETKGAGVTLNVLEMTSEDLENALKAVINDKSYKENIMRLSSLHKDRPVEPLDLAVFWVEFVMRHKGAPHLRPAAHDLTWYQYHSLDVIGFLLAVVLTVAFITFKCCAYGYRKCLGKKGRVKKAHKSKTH

[11] = cited from earlier work
[12] = cited from earlier work; remark: listed apart in the source
[13] = biological target: T1, UGT1A9; conditions: cited from earlier work
[14] = bioavailability studies in humans; cited from earlier work

## O=c1cc(-c2ccc(O)cc2)oc2cc(O)cc(O)c12 [5,7,4'THF, 5,7,4’-trihydroxyflavone]
[1]; 2.5 μM
  Degree of regiospecificity (major glucuronide in bracket): Dominant (7-O)
[1]; 10 μM
  Degree of regiospecificity (major glucuronide in bracket): Dominant (7-O)
[2]; 2.5 μM
  Degree of regiospecificity (major glucuronide in bracket): Dominant (7-O)
[2]; 10 μM
  Degree of regiospecificity (major glucuronide in bracket): Dominant (7-O)
[3]; 2.5 μM
  Degree of regiospecificity (major glucuronide in bracket): Dominant (7-O)
[3]; 10 μM
  Degree of regiospecificity (major glucuronide in bracket): Dominant (7-O)
[4]
  Glucuronidation and regiospecificity across the 8 UGT isoforms: all isoforms showed dominant regiospecific glucuronidation of hydroxyl group at C-7 position only

## O=c1c(O)c(-c2ccc(O)cc2)oc2cc(O)ccc12 [7,4'DHFnol, 3,7,4’-trihydroxyflavone]
[5]
  Hydroxyl positions glucuronidated: glucuronidated all the three hydroxyl groups
[6]; UGT1A9, substrate 2.5 μM
  Degree of regiospecificity (major glucuronide in bracket): Moderate (3-O)
[6]; UGT1A9, substrate 10 μM
  Degree of regiospecificity (major glucuronide in bracket): Moderate (3-O)
  Hydroxyl positions glucuronidated: glucuronidated hydroxyl groups at C-3 and C-7 positions only
[6]; UGT1A9, substrate 10 μM, listed as 7,4’DHFnol
  Degree of regiospecificity (major glucuronide in bracket): moderate
[7]; UGT1A1, substrate 2.5 μM
  Degree of regiospecificity (major glucuronide in bracket): No (3-O, 7-O)
[7]; UGT1A1, substrate 10 μM
  Degree of regiospecificity (major glucuronide in bracket): No (3-O, 7-O)
  Hydroxyl positions glucuronidated: glucuronidated all the three hydroxyl groups
[7]; UGT1A1, substrate 10 μM, listed as 7,4’DHFnol
  Degree of regiospecificity (major glucuronide in bracket): no regiospecific preference for any position
[8]
  Hydroxyl positions glucuronidated: glucuronidated all the three hydroxyl groups
[9]; UGT1A3, substrate 2.5 μM
  Degree of regiospecificity (major glucuronide in bracket): Dominant (7-O)
[9]; UGT1A3, substrate 10 μM
  Degree of regiospecificity (major glucuronide in bracket): Weak (7-O)
  Hydroxyl positions glucuronidated: glucuronidated hydroxyl groups at C-3 and C-7 positions only
[9]; UGT1A3, substrate 10 μM, listed as 7,4’DHFnol
  Degree of regiospecificity (major glucuronide in bracket): weak regiospecific preference for 7-O over 3-O position
[10]
  Hydroxyl positions glucuronidated: no position was glucuronidated

## O=C(O)[C@H]1O[C@@H](Oc2cc(O)c3c(=O)c(O)c(-c4ccc(O)c(O)c4)oc3c2)[C@H](O)[C@@H](O)[C@@H]1O [quercetin,7-O-G]
[11]
  Antioxidative property: stronger antioxidative property than quercetin,3-O-G

## O=c1c(-c2ccc(O)cc2)coc2cc(O)cc(O)c12 [genistein]
[12]; intravenous administration of genistein
  Cmax of 7-O-glucuronide relative to 4’-O-glucuronide: four times higher
[12]; per-oral administration of genistein
  Cmax of 7-O-G relative to 4’-O-glucuronide: 1.85 times

## O=c1c(O)c(-c2ccc(O)c(O)c2)oc2cc(O)cc(O)c12 [quercetin, 3,5,7,3’-4’-pentahydroxyflavone]
[13]
  Catalytic efficiency order for regiospecific glucuronidation: 3- > 7- > 3′- > 4′-O-glucuronide
[14]
  Main glucuronide found: 3-O-glucuronide of quercetin was also the main glucuronide

From article PMC3391414 (Journal of Agricultural and Food Chemistry, 2011)
